The source made the active and inactive calls. The calls are words filed in the database; no cut-off is given here.
What was measured:
[1] = target: T1, Peptidyl-prolyl cis-trans isomerase FKBP5 (Homo sapiens, UniProt Q13451); assay: (§1) Binding affinity to FKBP51 FK506-binding domain (1 to 140 amino acids) (unknown origin) incubated for 30 mins using fluorescein-conjugated 2-(5-((2-(3-((R)-3-(3,4-dimethoxyphenyl)-1-((S)-1-(3,3-dimethyl-2-oxopentanoyl)piperidine-2-carbonyloxy)propyl)phenoxy)acetamido)methyl)-6-hydroxy-3-oxo-3H-xanthen-9-yl)benzoic acid by competitive fluorescence polarization assay
T1 sequence (Q13451 whole entry): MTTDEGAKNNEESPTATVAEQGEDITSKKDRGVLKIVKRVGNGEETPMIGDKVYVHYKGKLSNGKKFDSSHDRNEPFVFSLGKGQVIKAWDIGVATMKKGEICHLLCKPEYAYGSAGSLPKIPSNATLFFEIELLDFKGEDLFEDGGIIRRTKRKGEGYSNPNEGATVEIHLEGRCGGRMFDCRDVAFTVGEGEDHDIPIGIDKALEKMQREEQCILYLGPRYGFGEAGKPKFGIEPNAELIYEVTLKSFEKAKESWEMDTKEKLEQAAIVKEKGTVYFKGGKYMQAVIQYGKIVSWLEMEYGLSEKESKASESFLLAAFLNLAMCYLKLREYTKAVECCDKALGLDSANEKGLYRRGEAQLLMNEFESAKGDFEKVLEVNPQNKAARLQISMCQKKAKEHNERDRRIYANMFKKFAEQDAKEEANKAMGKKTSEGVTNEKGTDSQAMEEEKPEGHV

[2] = target: Peptidyl-prolyl cis-trans isomerase FKBP1A (Homo sapiens, UniProt P62942); assay: as §1, with “human FKBP12 FK1” for “FKBP51 FK506-binding”, “domain” for “domain (1 to 140 amino acids) (unknown origin)”
Peptidyl-prolyl cis-trans isomerase FKBP1A, sequence (P62942 whole entry, the tested form may be a part): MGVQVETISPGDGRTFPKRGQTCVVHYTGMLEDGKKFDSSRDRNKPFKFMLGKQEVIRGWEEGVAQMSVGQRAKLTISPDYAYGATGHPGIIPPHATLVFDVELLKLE

[3] = target: T2, Peptidyl-prolyl cis-trans isomerase FKBP4 (Homo sapiens) (UniProt Q02790); assay: as §1, with “FKBP52” for “FKBP51 FK506-binding domain”, “origin) up to 500 uM” for “origin)”
T2 sequence (whole entry): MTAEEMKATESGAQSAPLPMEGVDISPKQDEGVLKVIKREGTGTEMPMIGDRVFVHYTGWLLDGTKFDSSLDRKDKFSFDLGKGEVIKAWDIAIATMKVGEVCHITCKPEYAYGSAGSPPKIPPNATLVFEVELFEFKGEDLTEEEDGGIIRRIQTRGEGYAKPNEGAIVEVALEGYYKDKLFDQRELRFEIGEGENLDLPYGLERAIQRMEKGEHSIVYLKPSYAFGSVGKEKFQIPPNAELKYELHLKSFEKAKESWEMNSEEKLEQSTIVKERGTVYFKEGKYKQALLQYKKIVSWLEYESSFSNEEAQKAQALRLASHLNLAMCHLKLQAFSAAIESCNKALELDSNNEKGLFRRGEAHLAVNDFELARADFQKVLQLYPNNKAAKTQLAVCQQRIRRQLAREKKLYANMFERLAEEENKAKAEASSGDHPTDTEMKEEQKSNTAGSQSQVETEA

[4] = target: T1, Peptidyl-prolyl cis-trans isomerase FKBP5
Description: Binding affinity to FKBP51 (unknown origin) by competitive fluorescence polarization assay

| SMILES | Ki [1] [µM] | Ki [2] [µM] | inhibition [3] | Ki [4] [µM] |
| --- | --- | --- | --- | --- |
| COc1cc([C@@H](C(=O)N2CCCC[C@H]2C(=O)N[C@H](C(N)=O)C2CCCCC2)C2CCCCC2)cc(OC)c1OC | 4.3 | 12.8 | – | – |
| COc1cc([C@@H](C(=O)N2CCCC[C@H]2C(=O)N[C@H](C)C(N)=O)C2CCCCC2)cc(OC)c1OC | 10 | 71.1 | – | – |
| CC[C@@H](NC(=O)[C@@H]1CCCCN1C(=O)[C@H](c1cc(OC)c(OC)c(OC)c1)C1CCCCC1)C(N)=O | 4.5 | 6 | – | – |
| COc1cc([C@@H](C(=O)N2CCCC[C@H]2C(=O)NCCCC(N)=O)C2CCCCC2)cc(OC)c1OC | 5.7 | 22.3 | – | – |
| COc1cc([C@@H](C(=O)N2CCCC[C@H]2C(=O)NC(C)(C)CC(N)=O)C2CCCCC2)cc(OC)c1OC | 3.8 | 3.2 | – | – |
| COc1cc([C@@H](C(=O)N2CCCC[C@H]2C(=O)N[C@@H](C(N)=O)c2ccccc2)C2CCCCC2)cc(OC)c1OC | – | 12.4 | – | – |
| CC[C@@H](C)[C@@H](NC(=O)[C@@H]1CCCCN1C(=O)[C@H](c1cc(OC)c(OC)c(OC)c1)C1CCCCC1)C(N)=O | 3.2 | 8.7 | – | – |
| COc1ccc(CC[C@@H](NC(=O)[C@@H]2CCCCN2C(=O)[C@H](c2cc(OC)c(OC)c(OC)c2)C2CCCCC2)c2cccc(OCC(=O)O)c2)cc1OC | 0.043 | – | – | – |
| COc1cc([C@@H](C(=O)N2CCCC[C@H]2C(=O)N[C@H](CO)C(N)=O)C2CCCCC2)cc(OC)c1OC | 2.8 | 46.9 | – | – |
| COc1cc([C@@H](C(=O)N2CCCC[C@H]2C(=O)NC2(C(N)=O)CC2)C2CCCCC2)cc(OC)c1OC | 19.5 | 50.3 | – | – |
| CCNC(=O)[C@@H]1CCCCN1C(=O)[C@H](c1cc(OC)c(OC)c(OC)c1)C1CCCCC1 | 55 | – | – | – |
| CC[C@H](C)[C@H](NC(=O)[C@@H]1CCCCN1C(=O)[C@H](c1cc(OC)c(OC)c(OC)c1)C1CCCCC1)C(N)=O | 7.1 | 12.1 | – | – |
| COc1cc([C@@H](C(=O)N2CCCC[C@H]2C(=O)N[C@@H](Cc2ccccc2)C(N)=O)C2CCCCC2)cc(OC)c1OC | 6.5 | 10.9 | – | – |
| COc1cc([C@@H](C(=O)N2CCCC[C@H]2C(=O)NC2(C(N)=O)CCC2)C2CCCCC2)cc(OC)c1OC | 4.9 | 23.4 | – | – |
| COc1cc([C@@H](C(=O)N2CCCC[C@H]2C(=O)N[C@@H](CCO)C(N)=O)C2CCCCC2)cc(OC)c1OC | – | 317 | – | – |
| COc1cc([C@@H](C(=O)N2CCCC[C@H]2C(=O)NCC(N)=O)C2CCCCC2)cc(OC)c1OC | 36.7 | > 300 | – | – |
| COc1cc([C@@H](C(=O)N2CCCC[C@H]2C(=O)NCCCCC(N)=O)C2CCCCC2)cc(OC)c1OC | 3.9 | 4.2 | – | – |
| COc1cc([C@@H](C(=O)N2CCCC[C@H]2C(=O)NCCC(N)=O)C2CCCCC2)cc(OC)c1OC | 5.6 | 49.2 | – | – |
| COc1cc([C@@H](C(=O)N2CCCC[C@H]2C(=O)N[C@H](CCC(N)=O)C(N)=O)C2CCCCC2)cc(OC)c1OC | 3.4 | 120 | – | – |
| COc1cc([C@@H](C(=O)N2CCCC[C@H]2C(=O)NC2(C(N)=O)CCCC2)C2CCCCC2)cc(OC)c1OC | 0.14 | 3.8 | inactive | – |

| SMILES | Ki [1] [µM] | Ki [2] [µM] | inhibition [3] | Ki [4] [µM] |
| --- | --- | --- | --- | --- |
| COc1cc([C@@H](C(=O)N2CCCC[C@H]2C(=O)N[C@@H](CC2CCCCC2)C(N)=O)C2CCCCC2)cc(OC)c1OC | 17.8 | 6.6 | – | – |
| COc1cc([C@@H](C(=O)N2CCCC[C@H]2C(=O)N[C@@H](C)C(N)=O)C2CCCCC2)cc(OC)c1OC | 17.1 | 30.7 | – | – |
| COc1cc([C@@H](C(=O)N2CCCC[C@H]2C(=O)NC(C)(C)C(N)=O)C2CCCCC2)cc(OC)c1OC | 2.2 | 25.1 | – | – |
| COc1cc([C@@H](C(=O)N2CCCC[C@H]2C(=O)NC2(C(=O)NCC(N)=O)CCCC2)C2CCCCC2)cc(OC)c1OC | 0.8 | 2 | – | – |
| COc1cc([C@@H](C(=O)N2CCCC[C@H]2C(=O)N[C@H](C(N)=O)c2ccccc2)C2CCCCC2)cc(OC)c1OC | – | 7.5 | – | – |
| COc1cc([C@@H](C(=O)N2CCCC[C@H]2C(=O)N[C@@H](CCc2ccccc2)C(N)=O)C2CCCCC2)cc(OC)c1OC | 9.1 | 30.1 | – | – |
| COc1cc([C@@H](C(=O)N2CCCC[C@H]2C(=O)N[C@@H](CO)C(N)=O)C2CCCCC2)cc(OC)c1OC | 62.9 | – | – | – |
| COc1cc([C@@H](C(=O)N2CCCC[C@H]2C(=O)N[C@@H](CCC2CCCCC2)C(N)=O)C2CCCCC2)cc(OC)c1OC | 12 | 22.5 | – | – |
| COc1cc([C@@H](C(=O)N2CCCC[C@H]2C(=O)N[C@@H](Cc2cnc[nH]2)C(N)=O)C2CCCCC2)cc(OC)c1OC | 13.4 | 101 | – | – |
| C=CC[C@@H]1/C=C(\C)C[C@H](C)C[C@H](OC)[C@H]2O[C@@](O)(C(=O)C(=O)N3CCCC[C@H]3C(=O)O[C@H](/C(C)=C/[C@@H]3CC[C@@H](O)[C@H](OC)C3)[C@H](C)[C@@H](O)CC1=O)[C@H](C)C[C@@H]2OC [TACROLIMUS ANHYDROUS] | – | – | – | 0.079 |
| COc1cc([C@@H](C(=O)N2CCCC[C@H]2C(=O)N[C@H](C(N)=O)C(C)C)C2CCCCC2)cc(OC)c1OC | 12.6 | 11.5 | – | – |
| COc1cc([C@@H](C(=O)N2CCCC[C@H]2C(=O)N[C@@H](CC(C)C)C(N)=O)C2CCCCC2)cc(OC)c1OC | 8.7 | 6.6 | – | – |
| COc1cc([C@@H](C(=O)N2CCCC[C@H]2C(=O)N[C@H](CCO)C(N)=O)C2CCCCC2)cc(OC)c1OC | – | 1.2 | – | – |
| COc1cc([C@@H](C(=O)N2CCCC[C@H]2C(=O)N[C@H](Cc2cnc[nH]2)C(N)=O)C2CCCCC2)cc(OC)c1OC | 3.8 | 26.9 | – | – |
| COc1cc([C@@H](C(=O)N2CCCC[C@H]2C(=O)NC2(C(N)=O)CCOCC2)C2CCCCC2)cc(OC)c1OC | 1.8 | 3 | – | – |
| COc1cc([C@@H](C(=O)N2CCCC[C@H]2C(=O)N[C@@H](CCC(N)=O)C(N)=O)C2CCCCC2)cc(OC)c1OC | 345 | – | – | – |
| CC[C@H](NC(=O)[C@@H]1CCCCN1C(=O)[C@H](c1cc(OC)c(OC)c(OC)c1)C1CCCCC1)C(N)=O | 3.6 | 51.9 | – | – |
| COc1cc([C@@H](C(=O)N2CCCC[C@H]2C(=O)N[C@@H](C(N)=O)C(C)C)C2CCCCC2)cc(OC)c1OC | 5 | 39.7 | – | – |
| COc1cc([C@@H](C(=O)N2CCCC[C@H]2C(=O)NC2(C(N)=O)CCCCC2)C2CCCCC2)cc(OC)c1OC | 1.9 | 4.3 | – | – |
| COc1cc([C@@H](C(=O)N2CCCC[C@H]2C(=O)N[C@H](Cc2ccccc2)C(N)=O)C2CCCCC2)cc(OC)c1OC | 1.4 | 5.6 | – | – |
